Results published in patent publication US9617267B2, “Compounds and methods for kinase modulation, and indications therefor” (Plexxikon Inc., priority 2009, dated 2017).
pIC50: −log10 of the molar value. Read-outs that look alike come from different tables or passages of the source.

How the values were obtained:
B-Raf [1] = target: B-Raf (Homo sapiens (Human), UniProt P15056); experiment: B-Raf kinase activity biochemical assay (AlphaScreen, biotin-MEK1 phosphorylation); details: B-Raf
Summary of the method: (§1)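 Biotin-MEK1 phosphorylation measured after 45 min kinase reaction at RT with 100 μM ATP final; compounds tested at 8 points from 0.1 mM DMSO stock.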

B-Raf [2] = experiment: as above; details: for Biochemical activity ratio B/V600E: ratio of IC50 B-Raf / B-Raf V600E; for Biochemical activity ratio B/C: ratio of IC50 B-Raf / c-Raf-1
Summary of the method: as §1

B-Raf V600E = B-Raf V600E (Homo sapiens (Human), UniProt P15056, V600E); experiment: B-Raf V600E kinase activity biochemical assay (AlphaScreen, biotin-MEK1 phosphorylation); details: for IC50: B-Raf V600E; for Biochemical activity ratio V600E/C: ratio of IC50 B-Raf V600E / c-Raf-1
Summary of the method: as §1

c-Raf-1 = c-Raf-1 (Homo sapiens, UniProt P04049); experiment: c-Raf-1 kinase activity biochemical assay (AlphaScreen, biotin-MEK1 phosphorylation)
Summary of the method: as §1

[3] = Relative solubility by turbidity threshold concentration in aqueous buffers (pH 1.5, 4.5, 6.8, 7.4); type: physicochemical; details: for turbidity threshold (L, M, H) 1.4: pH 1.4 [sic] (method: SGF pH 1.5); for turbidity threshold (L, M, H) 4.5: pH 4.5 (SIF); for turbidity threshold (L, M, H) 6.8: pH 6.8 (SIF); for turbidity threshold (L, M, H) 7.4: pH 7.4 (HEPES)
Summary of the method: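 Solubility class (high >250 μM, moderate 31.3–250 μM, low <31.3 μM) comes from the concentration where absorbance reaches a 0.01 threshold, averaged across 490/535/650 nm. Samples were compound dilutions from DMSO stock, 1 μL into 99 μL buffer at pH 1.5, 4.5, 6.8 or 7.4.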

CYP1A2 = CYP1A2 (Homo sapiens (Human), UniProt P05177); experiment: CYP enzyme inhibition, fluorescent substrate (CEC)
Summary of the method: (§2)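 Ten-point 1:1 compound dilutions in NADPH-regenerating cofactor mix, pre-incubated 10 min at 37 °C before enzyme/substrate addition: CYP1A2 0.5 pmol with 5 μM CEC, 15 min, 409 ex/460 em; CYP2D6 1.5 pmol with 1.5 μM AMMC, 30 min, 409 ex/530 em. IC50 from fluorescent product vs concentration.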

CYP2C19 = CYP2C19 (Homo sapiens (Human), UniProt P33261); experiment: CYP enzyme inhibition, fluorescent substrate (CEC)
Summary of the method: (§3)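 Human CYP activity was followed by the fluorescence of the metabolized product of a known substrate, which falls as metabolism is inhibited. Compounds from 100 mM DMSO stocks were serially diluted 1:1 over 10 points in co-factor mix and preincubated 10 min at 37 °C. IC50 was fitted from signal versus concentration.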

CYP2C9 = CYP2C9 (Homo sapiens (Human), UniProt P11712); experiment: CYP enzyme inhibition, fluorescent substrate (MFC)
Summary of the method: as §3

CYP2D6 = CYP2D6 (Homo sapiens (Human), UniProt P10635); experiment: CYP enzyme inhibition, fluorescent substrate (AMMC); type: in vitro ADME; details: read-out: Cyp IC50 2D6
Summary of the method: as §2

CYP3A4(BFC) = CYP3A4(BFC) (Homo sapiens (Human), UniProt P08684); experiment: CYP enzyme inhibition, fluorescent substrate BFC
Summary of the method: as §3

CYP3A4(BQ) = CYP3A4(BQ) (Homo sapiens (Human), UniProt P08684); experiment: CYP enzyme inhibition, fluorescent substrate BQ
Summary of the method: as §3

[4] = read-out: Cyp IC50 1A2, CYP1A2, substrate CEC
[5] = read-out: Cyp IC50 2C19, CYP2C19, substrate CEC
[6] = read-out: Cyp IC50 3A4(BQ), CYP3A4, substrate BQ
[7] = read-out: Cyp IC50 2C9, CYP2C9, substrate MFC
[8] = read-out: Cyp IC50 3A4(BFC), CYP3A4, substrate BFC

Sequence of CYP3A4(BFC) (P08684 whole entry): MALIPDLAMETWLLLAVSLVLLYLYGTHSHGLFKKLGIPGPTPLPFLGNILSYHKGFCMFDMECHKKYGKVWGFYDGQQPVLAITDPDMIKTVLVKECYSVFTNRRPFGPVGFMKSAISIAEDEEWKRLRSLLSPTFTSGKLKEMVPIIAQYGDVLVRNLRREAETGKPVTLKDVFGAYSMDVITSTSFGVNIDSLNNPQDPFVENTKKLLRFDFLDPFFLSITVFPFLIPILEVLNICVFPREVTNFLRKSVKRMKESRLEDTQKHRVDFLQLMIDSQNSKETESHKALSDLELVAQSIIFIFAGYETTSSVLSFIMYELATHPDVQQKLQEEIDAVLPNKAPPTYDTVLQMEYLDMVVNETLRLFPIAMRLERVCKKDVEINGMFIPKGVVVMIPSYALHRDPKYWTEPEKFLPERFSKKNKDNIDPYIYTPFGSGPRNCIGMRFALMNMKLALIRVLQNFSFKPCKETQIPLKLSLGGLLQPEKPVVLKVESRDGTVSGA
Sequence of CYP3A4(BQ) (P08684 whole entry): as above
Sequence of B-Raf (Homo sapiens (Human), UniProt P15056) (P15056 whole entry): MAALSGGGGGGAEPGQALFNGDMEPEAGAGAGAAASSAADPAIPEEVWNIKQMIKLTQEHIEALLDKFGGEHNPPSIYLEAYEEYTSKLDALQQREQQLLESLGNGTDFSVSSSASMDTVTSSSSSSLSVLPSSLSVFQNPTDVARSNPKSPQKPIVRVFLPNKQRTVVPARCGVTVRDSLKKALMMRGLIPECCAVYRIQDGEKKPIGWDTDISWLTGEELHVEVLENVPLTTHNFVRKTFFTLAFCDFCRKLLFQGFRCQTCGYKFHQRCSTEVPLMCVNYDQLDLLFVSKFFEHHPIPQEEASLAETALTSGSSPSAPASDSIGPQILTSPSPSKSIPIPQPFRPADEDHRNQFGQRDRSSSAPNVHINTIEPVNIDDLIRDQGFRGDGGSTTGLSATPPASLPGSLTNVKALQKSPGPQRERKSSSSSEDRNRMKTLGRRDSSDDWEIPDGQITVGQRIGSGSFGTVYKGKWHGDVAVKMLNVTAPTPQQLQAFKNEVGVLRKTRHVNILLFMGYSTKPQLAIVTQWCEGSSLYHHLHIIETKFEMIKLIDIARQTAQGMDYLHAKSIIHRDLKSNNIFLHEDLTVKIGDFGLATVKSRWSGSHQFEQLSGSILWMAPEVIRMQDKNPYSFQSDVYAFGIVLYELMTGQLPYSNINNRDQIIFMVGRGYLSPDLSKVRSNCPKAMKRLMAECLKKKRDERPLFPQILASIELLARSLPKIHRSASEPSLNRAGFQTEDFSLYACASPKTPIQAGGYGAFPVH
Sequence of CYP2C9 (P11712 whole entry): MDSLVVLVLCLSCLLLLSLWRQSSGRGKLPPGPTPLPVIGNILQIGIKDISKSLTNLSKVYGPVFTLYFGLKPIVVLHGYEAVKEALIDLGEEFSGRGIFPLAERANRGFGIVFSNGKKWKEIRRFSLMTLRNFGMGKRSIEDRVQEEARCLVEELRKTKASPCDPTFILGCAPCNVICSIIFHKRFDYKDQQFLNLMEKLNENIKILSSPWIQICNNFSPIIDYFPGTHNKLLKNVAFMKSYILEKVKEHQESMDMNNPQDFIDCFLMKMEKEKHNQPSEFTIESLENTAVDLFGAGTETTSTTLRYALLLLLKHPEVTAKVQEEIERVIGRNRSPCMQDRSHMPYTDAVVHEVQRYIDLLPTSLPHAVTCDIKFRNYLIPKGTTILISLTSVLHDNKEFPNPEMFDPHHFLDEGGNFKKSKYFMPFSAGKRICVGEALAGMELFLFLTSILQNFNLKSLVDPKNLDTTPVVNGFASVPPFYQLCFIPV
Sequence of CYP2C19 (P33261 whole entry): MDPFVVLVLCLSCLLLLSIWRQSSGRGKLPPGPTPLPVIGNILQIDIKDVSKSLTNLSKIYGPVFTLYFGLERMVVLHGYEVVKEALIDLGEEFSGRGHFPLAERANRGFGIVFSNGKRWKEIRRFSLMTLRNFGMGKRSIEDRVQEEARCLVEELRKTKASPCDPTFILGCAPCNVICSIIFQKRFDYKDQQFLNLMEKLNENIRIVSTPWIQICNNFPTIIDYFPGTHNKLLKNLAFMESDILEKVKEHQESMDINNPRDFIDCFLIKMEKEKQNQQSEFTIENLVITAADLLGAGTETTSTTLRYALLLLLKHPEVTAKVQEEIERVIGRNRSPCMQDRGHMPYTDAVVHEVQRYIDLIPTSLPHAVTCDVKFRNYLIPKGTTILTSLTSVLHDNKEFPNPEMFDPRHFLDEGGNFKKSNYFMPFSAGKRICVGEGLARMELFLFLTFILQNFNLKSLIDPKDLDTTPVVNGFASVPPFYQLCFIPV
Sequence of CYP2D6 (P10635 whole entry): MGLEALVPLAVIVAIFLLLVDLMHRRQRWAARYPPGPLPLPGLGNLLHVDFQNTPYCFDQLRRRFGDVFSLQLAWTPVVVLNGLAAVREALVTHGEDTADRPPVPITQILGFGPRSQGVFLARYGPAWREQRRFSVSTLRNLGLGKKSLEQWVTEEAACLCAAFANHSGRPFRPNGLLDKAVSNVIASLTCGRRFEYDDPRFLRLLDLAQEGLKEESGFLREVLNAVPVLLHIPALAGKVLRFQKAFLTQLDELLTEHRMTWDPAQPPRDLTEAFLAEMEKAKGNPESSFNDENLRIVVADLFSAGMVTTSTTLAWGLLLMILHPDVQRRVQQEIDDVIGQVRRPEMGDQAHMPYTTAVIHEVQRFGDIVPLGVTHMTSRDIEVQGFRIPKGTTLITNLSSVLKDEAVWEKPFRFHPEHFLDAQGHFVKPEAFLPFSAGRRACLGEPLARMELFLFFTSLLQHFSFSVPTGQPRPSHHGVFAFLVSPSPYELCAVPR
Sequence of CYP1A2 (P05177 whole entry): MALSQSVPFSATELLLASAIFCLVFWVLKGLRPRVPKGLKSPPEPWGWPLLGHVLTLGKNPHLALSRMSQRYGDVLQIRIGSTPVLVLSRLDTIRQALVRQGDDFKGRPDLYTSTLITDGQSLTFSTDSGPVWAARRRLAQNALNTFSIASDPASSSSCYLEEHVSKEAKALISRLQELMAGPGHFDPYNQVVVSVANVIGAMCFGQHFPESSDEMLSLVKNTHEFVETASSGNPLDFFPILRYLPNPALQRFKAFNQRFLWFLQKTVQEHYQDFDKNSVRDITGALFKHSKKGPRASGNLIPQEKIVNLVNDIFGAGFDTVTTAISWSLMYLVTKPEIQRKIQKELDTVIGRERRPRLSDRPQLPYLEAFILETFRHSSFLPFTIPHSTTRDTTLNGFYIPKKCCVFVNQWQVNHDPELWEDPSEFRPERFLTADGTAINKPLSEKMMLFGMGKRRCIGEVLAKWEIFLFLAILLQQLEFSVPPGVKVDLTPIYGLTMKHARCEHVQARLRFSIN
Sequence of B-Raf V600E (P15056 whole entry V600E): as the sequence (P15056 whole entry) above, with V600E counted along it
Sequence of c-Raf-1 (P04049 whole entry, looked up): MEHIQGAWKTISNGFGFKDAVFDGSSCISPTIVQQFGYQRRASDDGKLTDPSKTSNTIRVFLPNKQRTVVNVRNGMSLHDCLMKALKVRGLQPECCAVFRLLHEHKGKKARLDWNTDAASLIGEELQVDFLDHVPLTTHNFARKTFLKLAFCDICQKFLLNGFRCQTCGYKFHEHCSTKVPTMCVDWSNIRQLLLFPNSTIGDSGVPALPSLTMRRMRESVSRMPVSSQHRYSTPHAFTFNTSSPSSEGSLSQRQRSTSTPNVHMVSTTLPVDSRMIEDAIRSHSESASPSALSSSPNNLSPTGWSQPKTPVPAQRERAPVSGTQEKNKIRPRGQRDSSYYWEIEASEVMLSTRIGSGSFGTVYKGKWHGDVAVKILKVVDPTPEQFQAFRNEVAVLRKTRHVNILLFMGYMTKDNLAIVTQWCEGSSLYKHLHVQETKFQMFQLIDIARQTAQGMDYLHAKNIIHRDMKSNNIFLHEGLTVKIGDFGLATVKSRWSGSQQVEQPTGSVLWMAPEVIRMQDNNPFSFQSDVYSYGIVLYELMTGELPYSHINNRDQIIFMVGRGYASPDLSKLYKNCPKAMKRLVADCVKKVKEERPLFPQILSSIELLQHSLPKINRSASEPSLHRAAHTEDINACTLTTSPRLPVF

| Structure (SMILES) | IC50 (B-Raf [1]) [µM] | Biochemical activity ratio B/V600E (B-Raf [2]) | Biochemical activity ratio B/C (B-Raf [2]) | IC50 (B-Raf V600E) [µM] | Biochemical activity ratio V600E/C (B-Raf V600E) | IC50 (c-Raf-1) [µM] | turbidity threshold (L, M, H) 1.4 [3] | turbidity threshold (L, M, H) 4.5 [3] | turbidity threshold (L, M, H) 6.8 [3] | turbidity threshold (L, M, H) 7.4 [3] | pIC50 (CYP1A2; [4]) | pIC50 (CYP2C19; [5]) | pIC50 (CYP2C9) | pIC50 (CYP2D6) | pIC50 (CYP3A4(BFC)) | pIC50 (CYP3A4(BQ); [6]) | pIC50 (CYP1A2; human, 15 min) | pIC50 (CYP2C9; [7]) | pIC50 (CYP3A4(BFC); [8]) | further results |
| --- | --- | --- | --- | --- | --- | --- | --- | --- | --- | --- | --- | --- | --- | --- | --- | --- | --- | --- | --- | --- |
| Cc1cc(C)cc(S(=O)(=O)Nc2ccc(F)c(C(=O)c3c[nH]c4ncnc(NC(C)C)c34)c2F)c1 [P-1045, N-[2,4-Difluoro-3-(4-isopropylamino-7H-pyrrolo[2,3-d]pyrimidine-5-carbonyl)-phenyl]-3,5-dimethyl-benzenesulfonamide] | > 0.1 | 0.1-10 | >10 | < 0.1 | 0.1-10 | < 0.1 | M (moderate solubility if the threshold concentration is 31.3 μM to 250 μM) | L (low solubility if the threshold concentration is <31.3 μM) | L (low solubility if the threshold concentration is <31.3 μM) | L (low solubility if the threshold concentration is <31.3 μM) | < 5.00 | > 5.30 | 5.00 to 5.30 | < 5.00 | 5.00 to 5.30 | < 5.00 | – | – | – | – |
| CC(C)Nc1ncnc2[nH]cc(C(=O)c3c(F)ccc(NS(=O)(=O)c4ccc(C(C)C)cc4)c3F)c12 [P-1044, N-[2,4-Difluoro-3-(4-isopropylamino-7H-pyrrolo[2,3-d]pyrimidine-5-carbonyl)-phenyl]-4-isopropyl-benzenesulfonamide] | < 0.1 | 0.1-10 | >10 | > 0.1 | >10 | < 0.1 | M (moderate solubility if the threshold concentration is 31.3 μM to 250 μM) | M (moderate solubility if the threshold concentration is 31.3 μM to 250 μM) | M (moderate solubility if the threshold concentration is 31.3 μM to 250 μM) | M (moderate solubility if the threshold concentration is 31.3 μM to 250 μM) | – | > 5.30 | – | < 5.00 | – | < 5.00 | < 5.00 | < 5.00 | < 5.00 | – |
| CCCS(=O)(=O)Nc1ccc(F)c(C(=O)c2c[nH]c3ncnc(NC4COC4)c23)c1F [P-1060, Propane-1-sulfonic acid {2,4-difluoro-3-[4-(oxetan-3-ylamino)-7H-pyrrolo[2,3-d]pyrimidine-5-carbonyl]-phenyl}-amide] | < 0.1 | 0.1-10 | >10 | < 0.1 | 0.1-10 | < 0.1 | H (high solubility if the threshold concentration is >250 μm) | M (moderate solubility if the threshold concentration is 31.3 μM to 250 μM) | H (high solubility if the threshold concentration is >250 μm) | H (high solubility if the threshold concentration is >250 μm) | – | < 5.00 | – | < 5.00 | – | < 5.00 | < 5.00 | < 5.00 | < 5.00 | – |
| O=C(c1c(F)ccc(NS(=O)(=O)c2ccc(C(F)(F)F)cc2)c1F)c1c[nH]c2ncnc(NCCO)c12 [P-1043, N-{2,4-Difluoro-3-[4-(2-hydroxy-ethylamino)-7H-pyrrolo[2,3-d]pyrimidine-5-carbonyl]-phenyl}-4-trifluoromethyl-benzenesulfonamide] | < 0.1 | 0.1-10 | >10 | > 0.1 | >10 | < 0.1 | H (high solubility if the threshold concentration is >250 μm) | M (moderate solubility if the threshold concentration is 31.3 μM to 250 μM) | M (moderate solubility if the threshold concentration is 31.3 μM to 250 μM) | M (moderate solubility if the threshold concentration is 31.3 μM to 250 μM) | – | < 5.00 | – | < 5.00 | – | < 5.00 | < 5.00 | < 5.00 | < 5.00 | – |
| N#Cc1c(Cl)cnc2[nH]cc(C(=O)c3c(F)ccc(NS(=O)(=O)c4ccc(C(F)(F)F)cc4)c3F)c12 [P-2010, N-[3-(5-Chloro-4-cyano-1H-pyrrolo[2,3-b]pyridine-3-carbonyl)-2,4-difluoro-phenyl]-4-trifluoromethyl-benzenesulfonamide] | < 0.1 | 0.1-10 | >10 | < 0.1 | >10 | < 0.1 | L (low solubility if the threshold concentration is <31.3 μM) | L (low solubility if the threshold concentration is <31.3 μM) | L (low solubility if the threshold concentration is <31.3 μM) | M (moderate solubility if the threshold concentration is 31.3 μM to 250 μM) | – | – | 5.00 to 5.30 | > 5.30 | < 5.00 | – | – | – | – | pIC50 (CYP1A2): < 5.00; pIC50 (CYP2C19): < 5.00; pIC50 (CYP3A4(BQ)): < 5.00 |
| CCOc1ncnc2[nH]cc(C(=O)c3c(F)ccc(NS(=O)(=O)c4ccc(C(F)(F)F)cc4)c3F)c12 [P-1006, N-[3-(4-Ethoxy-7H-pyrrolo[2,3-d]pyrimidine-5-carbonyl)-2,4-difluoro-phenyl]-4-trifluoromethyl-benzenesulfonamide] | > 0.1 | 0.1-10 | 0.1-10 | > 0.1 | >10 | < 0.1 | L (low solubility if the threshold concentration is <31.3 μM) | L (low solubility if the threshold concentration is <31.3 μM) | L (low solubility if the threshold concentration is <31.3 μM) | H (high solubility if the threshold concentration is >250 μm) | < 5.00 | < 5.00 | 5.00 to 5.30 | < 5.00 | – | < 5.00 | – | – | > 5.30 | – |
